Assay results taken from patent US10927354B2, “D-type amino acid dehydrogenase” (Kureha Corporation, priority 2017, dated 2021).

B1: D-type amino acid dehydrogenase: D-type amino acid dehydrogenase derived from N. massiliense, amino acid sequence SEQ ID NO: 2, hexamer (protein)
chain: MSNVYNVAVVGYGNIGKYAVQAIDAAPDMQLAGVVRRASSAAKDTPPELVGRRVVHDIRDLEQVDVAILAAPTRTIPAYARDVLSLGIHTVDSYDIHGELANLRRELDDVSKKNDSVAIISAGWDPGTDSMIRGMLEFMAPGGLTYTNFGPGMSMGHSVAVKAIDGVKDALSLTIPLGTSIHRRMVYVELEAGADFETVKKAILADPYFVNDETHVTQVPNVQQLVNVGHGVSMERRGVSGATHNQLFTFEMRINNPALTSQVLVAAARATFKQQPGAYTMIEVPVIDYLPGDRDDIIRRLV
modifications: hexamer; Numidum massiliense

Experiments:
[1] = test system: three-mutation introduced D-type amino acid dehydrogenase (Thr174Ile, Arg184Met, His230Asn); test: D-amino acid synthesis activity, three-mutation enzyme; assay type: biochemical, Numidum massiliense; details: 5 mM 2-oxo acid, 200 mM ammonium chloride, pH 9.5, 50° C.; for D-amino acid synthesis activity (specific activity), Three-mutation enzyme, NADH: 0.1 mM NADH; for D-amino acid synthesis activity (specific activity), Three-mutation enzyme, NADPH: 0.1 mM NADPH
Excerpt: DNA encoding polypeptide in which three types of mutations (Thr174Ile, Arg184Met, and His230Asn) were introduced into the amino acid sequence of D-type amino acid dehydrogenase derived from N. massiliense was obtained by synthesis. This was cleaved with restriction enzymes NdeI and EcoRI, separated by agarose gel electrophoresis, and then extracted and purified from the gel. DNA fragments after a restriction enzyme treatment were incorporated into restriction enzyme sites (NdeI and EcoRI) of pET-21a(+) (available from Novagen) of a plasmid for protein expression by a ligation reaction to construct an expression vector that retains three-mutation introduced D-type amino acid dehydrogenase gene. The expression vector was constructed such that the three-mutation introduced D-type amino acid dehydrogenase gene was incorporated into downstream of the T7 promoter and the […] binding site, and upstream of the T7 terminator.
(§1) The activity of the enzyme was measured by determining a decrease in absorbance at wavelength of 340 nm of NADPH or NADH produced by the catalytic reaction of the enzyme. […] The absorbance was measured by an ultraviolet-visible spectrophotometer UV-1800 (available from SHIMADZU).

[2] = test system: six-mutation introduced D-type amino acid dehydrogenase (Asp95Ser, Met155Leu, Val159Gly, Thr174Ile, Arg184Met, His230Asn); test: D-amino acid synthesis activity, six-mutation enzyme; assay type: biochemical, Numidum massiliense; details: 5 mM 2-oxo acid, 200 mM ammonium chloride, pH 9.5, 50° C.; for D-amino acid synthesis activity (specific activity), Six-mutation enzyme, NADH: 0.1 mM NADH; for D-amino acid synthesis activity (specific activity), Six-mutation enzyme, NADPH: 0.1 mM NADPH
Protocol: DNA encoding polypeptide into which six types of mutations (Asp95Ser, Met155Leu, Val159Gly, Thr174Ile, Arg184Met, and His230Asn) were introduced into the amino acid sequence of D-type amino acid dehydrogenase derived from N. massiliense was obtained by synthesis. An expression vector that retains the six-mutation introduced D-type amino acid dehydrogenase gene was further constructed in the same manner as described above.
as §1

[3] = test system: five-mutation introduced D-type amino acid dehydrogenase (Met155Leu, Val159Gly, Thr174Ile, Arg184Met, His230Asn); test: D-amino acid synthesis activity, five-mutation enzyme; assay type: biochemical, Numidum massiliense; details: 5 mM 2-oxo acid, 200 mM ammonium chloride, pH 9.5, 50° C.; for D-amino acid synthesis activity (specific activity), Five-mutation enzyme, NADH: 0.1 mM NADH; for D-amino acid synthesis activity (specific activity), Five-mutation enzyme, NADPH: 0.1 mM NADPH
Protocol: In order to prepare a gene for a mutant enzyme in which five types of mutations (Met155Leu, Val159Gly, Thr174Ile, Arg184Met, and His230Asn) are introduced into the D-type amino acid dehydrogenase derived from N. massiliense, the six mutation-introduced D-type amino acid dehydrogenase/pET-21a(+) prepared above was used as a template to prepare the expression vector by PCR using “PrimeSTAR Max DNA Polymerase” available from Takara Bio Inc. PCR was performed according to the manufacturer's protocol. A PCR reaction solution was prepared by containing 0.3 μM of each of the following primers and 50 ng of templet DNA as described above.
as §1

[4] = test system: D-type amino acid dehydrogenase derived from N. massiliense (wild type); test: D-amino acid synthesis activity, wild type enzyme; assay type: biochemical, Numidum massiliense; details: 5 mM 2-oxo acid, 200 mM ammonium chloride, pH 9.5, 50° C.; for D-amino acid synthesis activity (specific activity), Wild type, NADH: 0.1 mM NADH; for D-amino acid synthesis activity (specific activity), Wild type, NADPH: 0.1 mM NADPH
Protocol: as §1

[5] = test system: D-type amino acid dehydrogenase derived from N. massiliense; test: Kinetic analysis of D-type amino acid dehydrogenase; assay type: biochemical, Numidum massiliense; details: meso-diaminopimelic acid as substrate, NADP^+ or NAD^+ as coenzyme; values for meso-diaminopimelic acid determined using NADP^+
Protocol: The absorbance was measured by an ultraviolet-visible spectrophotometer UV-1800 (available from SHIMADZU). The specific activity of the enzyme was calculated from the concentration of the enzyme used and enzyme dilution rate using the obtained absorbance change and the following equation. […] A turnover number (kcat) as a reaction rate parameter, a Michaelis constant (Km) value, and catalytic efficiency (kcat/Km) were determined with Igor Pro ver. 3.14 (available from WaveMetrics) based on Michaelis-Menten equation after the initial velocities were plotted against different substrates and coenzyme concentrations.

[6] = Thermal stability of D-type amino acid dehydrogenase; assay type: physicochemical; details: 60° C., 30 minutes, 10 mM phosphate buffer pH 7.2; relative to treatment at 40° C. as 100%
Protocol: The D-type amino acid dehydrogenase purified in Example 2 was heat-treated in 10 mM phosphate buffer solution (pH 7.2) under various temperature conditions (40° C., 45° C., 50° C., 55° C., 60° C., 65° C., or 70° C.) for 30 minutes to confirm residual activity after being left to stand for 5 minutes on ice. […] The residual activity after treatment at other temperatures was calculated as a relative activity with treatment at 40° C. as 100%.

[7] = Activity-staining with D-alanine or L-alanine; assay type: biochemical; details: 10 mM D-alanine or L-alanine, 1.25 mM NADP^+, pH 8.0, 50° C., 30 minutes
Protocol: The activity was evaluated for the D-type amino acid dehydrogenase obtained in Example 2 above. The activity of the enzyme was evaluated by an activity-staining method due to a catalytic reaction of the enzyme. More specifically, an appropriate amount of enzyme solution was subjected to disc gel electrophoresis. […] 2-(4-iodophenyl)-3-(4-nitrophenyl)-5-phenyl-2H-tetrazolium chloride in the reaction solution is reduced to form a […] formazan. A reaction formula is indicated below. In the following reaction formula, the D-type amino acid dehydrogenase is referred to as “meso-DAPDH”.

[8] = Optimum pH in catalytic reaction (deamination of meso-diaminopimelic acid); assay type: biochemical; details: deamination of 10 mM meso-diaminopimelic acid, 1.25 mM NADP^+, 50° C.
Protocol: The optimum pH was evaluated for the D-type amino acid dehydrogenase obtained in Example 2. The activity of the enzyme was measured by determining an increase in absorbance at wavelength of 340 nm of NADPH produced by the catalytic reaction of the enzyme.
The absorbance was measured by an ultraviolet-visible spectrophotometer UV-1800 (available from SHIMADZU). The specific activity of the enzyme was calculated from the concentration of the enzyme used and enzyme dilution rate using the obtained absorbance change and the following equation.

[9] = pH stability of D-type amino acid dehydrogenase; assay type: physicochemical; details: pH 5.5 to 9.5, 50° C., 30 minutes; relative to pH 5.5 as 100%
Protocol: The D-type amino acid dehydrogenase purified in Example 2 was subjected to a heat treatment at 50° C., in 100 mM of each buffer solution (pH 4.0, 4.5, 5.0, 5.5, 6.0, 6.5, 7.0, 7.5, 8.0, 8.5, 9.0, 9.5, 10.0, 10.5, 11.0, 11.3, 12.0, 12.3, or 13.0) for 30 minutes to confirm residual activity after being left to stand for 5 minutes on ice. […] The residual activity after treatment at other pH was calculated as a relative activity with treatment at pH 5.5 as 100%.

[10] = Optimum temperature in catalytic reaction; assay type: biochemical; details: deamination of meso-diaminopimelic acid, NADP^+, 50-80° C. tested
Protocol: The measurement results are illustrated in FIG. 6. From the results, it was confirmed that the optimum temperature for activity was about 75° C.

[11] = Coenzyme dependence by activity-staining; assay type: biochemical; details: 10 mM meso-diaminopimelic acid, 1.25 mM coenzyme, pH 8.0, 50° C., 30 minutes
Protocol: The coenzyme dependence was evaluated for the D-type amino acid dehydrogenase obtained in Example 2 above. The coenzyme dependence of the enzyme was evaluated by an activity-staining method due to a catalytic reaction of the enzyme.
More specifically, an appropriate amount of enzyme solution was subjected to disc gel electrophoresis. […] The 2-(4-iodophenyl)-3-(4-nitrophenyl)-5-phenyl-2H-tetrazolium chloride in the reaction solution is reduced to form a […] formazan. A reaction formula is indicated below. In the following reaction formula, the D-type amino acid dehydrogenase is referred to as “meso-DAPDH”.

Molecule	D-amino acid synthesis activity (specific activity), Three-mutation enzyme, NADH [1]	D-amino acid synthesis activity (specific activity), Three-mutation enzyme, NADPH [1]	D-amino acid synthesis activity (specific activity), Six-mutation enzyme, NADH [2]	D-amino acid synthesis activity (specific activity), Six-mutation enzyme, NADPH [2]	D-amino acid synthesis activity (specific activity), Five-mutation enzyme, NADH [3]	D-amino acid synthesis activity (specific activity), Five-mutation enzyme, NADPH [3]	D-amino acid synthesis activity (specific activity), Wild type, NADH [4]	D-amino acid synthesis activity (specific activity), Wild type, NADPH [4] [µmol/min/mg]	kcat [5] [s⁻¹]	residual activity after heat treatment [6]	D/L selectivity (activity-staining) [7]	optimum pH for activity [8]	residual activity after pH treatment [9] [%]	optimum temperature for activity [10]	coenzyme dependence (activity-staining) [11]
O=C(O)CC(=O)C(=O)O [2-oxobutanedioic acid]	0.12 µmol/min/mg	2.0 µmol/min/mg	0.14 µmol/min/mg	0.44 µmol/min/mg	0.25 µmol/min/mg	0.39 µmol/min/mg	0.13 µmol/min/mg	5.2	–	–	–	–	–	–	–
CCC(=O)C(=O)O [2-oxobutanoic acid]	0.028 µmol/min/mg	2.2 µmol/min/mg	0.0011 µmol/min/mg	0.027 µmol/min/mg	0.014 µmol/min/mg	1.6 µmol/min/mg	0.011 µmol/min/mg	1.4	–	–	–	–	–	–	–
O=C(O)CCC(=O)C(=O)O [2-oxoglutaric acid]	No	No	No	No	No	No	No	0.11	–	–	–	–	–	–	–
CCCCCCC(=O)C(=O)O [2-oxooctanoic acid]	0.039 µmol/min/mg	8.2 µmol/min/mg	1.0 µmol/min/mg	9.0 µmol/min/mg	0.050 µmol/min/mg	11.2 µmol/min/mg	No	5.8	–	–	–	–	–	–	–
CC(=O)C(=O)O [2-oxopropanoic acid]	0.000 µmol/min/mg	2.2 µmol/min/mg	0.12 µmol/min/mg	0.0070 µmol/min/mg	0.046 µmol/min/mg	0.30 µmol/min/mg	0.13 µmol/min/mg	4.7	–	–	–	–	–	–	–
NC(=O)c1ccc[n+]([C@@H]2O[C@H](COP(=O)([O-])OP(=O)(O)OC[C@H]3O[C@@H](n4cnc5c(N)ncnc54)[C@H](O)[C@@H]3O)[C@@H](O)[C@H]2O)c1 [NAD^1]	–	–	–	–	–	–	–	–	8930	–	–	–	–	–	–
B1	–	–	–	–	–	–	–	–	–	about 76%	selectively acts on the D-amino acid	10.5	≥ 90	about 75 °C	utilized both NAD^+ and NADP^+ coenzymes
